Results taken from patent US10597388B2, “Pyridazinone herbicides” (FMC CORPORATION, priority 2014, dated 2020).

Key:
Experiment in all cases: Test D controlled growth environment herbicide test, pre- and postemergence
Type in all cases: in vivo
[1] = test system: buckwheat, wild (wild buckwheat, Polygonum convolvulus)
Method in brief: (§1)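 Pre-emergence: seeds sown in silt loam soil were sprayed with compound in a non-phytotoxic solvent mix containing surfactant. Post-emergence: plants at 2 to 18 cm (1- to 4-leaf stage) in peat moss/vermiculite medium got the same formulation. Visual 0–100 rating versus controls after 14 to 21 d.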

[2] = test system: bromegrass, downy (downy bromegrass, Bromus tectorum)
Method in brief: as §1

[3] = test system: lambsquarters (Chenopodium album)
Method in brief: as §1

[4] = test system: pigweed (Amaranthus retroflexus)
Method in brief: as §1

[5] = test system: chamomile (scentless chamomile, Matricaria inodora)
Method in brief: as §1

[6] = test system: Russian thistle (Salsola kali)
Method in brief: as §1

[7] = test system: speedwell (bird's-eye speedwell, Veronica persica)
Method in brief: as §1

kochia (Kochia scoparia) = test system: kochia (Kochia scoparia)
Method in brief: as §1

[8] = test system: field violet (Viola arvensis)
Method in brief: as §1

[9] = test system: oat, wild (wild oat, Avena fatua)
Method in brief: as §1

[10] = test system: blackgrass (Alopecurus myosuroides)
Method in brief: as §1

[11] = test system: galium (catchweed bedstraw, Galium aparine)
Method in brief: as §1

[12] = test system: oilseed rape (Brassica napus)
Method in brief: as §1

[13] = Postemergence, 31 g ai/ha, scale 0 to 100 (0 no effect, 100 complete control)
[14] = Postemergence, 125 g ai/ha, visual rating on scale 0 (no effect) to 100 (complete control), 14 to 21 d
[15] = Postemergence, 250 g ai/ha, scale 0 to 100 (0 no effect, 100 complete control)
[16] = Preemergence, 62 g ai/ha, scale 0 to 100 (0 no effect, 100 complete control)
[17] = Preemergence, 125 g ai/ha, scale 0 to 100 (0 no effect, 100 complete control)
[18] = Preemergence, 250 g ai/ha, scale 0 to 100 (0 no effect, 100 complete control)
[19] = postemergence, 62 g ai/ha, scale 0 to 100, 0 no effect, 100 complete control

CCOC(=O)Oc1c(C)nn(C)c(=O)c1-c1c(C)sc2ccc(C)cc12 [Compound 82]
10: Plant response rating (scale of 0 to 100), Russian Thistle ([6]; Preemergence, 31 g ai/ha)
65: Plant response rating, Bromegrass, Downy [2, 16] | Russian Thistle plant response rating [6, 13] | Plant response rating, Russian Thistle [6, 17] | Plant response rating, Russian Thistle [6, 18]
60: Plant response rating, Bromegrass, Downy [2, 14] | Plant response rating, Bromegrass, Downy [2, 15] | Plant response rating (scale of 0 to 100), Galium ([11]; Preemergence, 31 g ai/ha) | Plant response rating (scale of 0 to 100), Galium ([11]; Preemergence, 62 g ai/ha) | Plant response rating, Oilseed Rape [12, 14] | Plant response rating, Oilseed Rape [12, 18]
100: Plant response rating, Buckwheat, Wild [1, 14] | Plant response rating, Buckwheat, Wild [1, 15] | Plant response rating, Buckwheat, Wild [1, 19] | Plant response rating, Lambsquarters [3, 15] | Plant response rating, Lambsquarters [3, 17] | Plant response rating, Lambsquarters [3, 18] | Plant response rating, Pigweed [4, 14] | Plant response rating, Pigweed [4, 15] | Plant response rating (scale of 0 to 100), Pigweed ([4]; Preemergence, 31 g ai/ha) | Plant response rating (scale of 0 to 100), Pigweed ([4]; Preemergence, 62 g ai/ha) | Plant response rating, Pigweed [4, 17] | Plant response rating, Pigweed [4, 18] | Plant response rating, Pigweed [4, 19] | Plant response rating, Chamomile [5, 14] | Plant response rating, Chamomile [5, 15] | Plant response rating (scale of 0 to 100), Chamomile ([5]; Preemergence, 31 g ai/ha) | Plant response rating (scale of 0 to 100), Chamomile ([5]; Preemergence, 62 g ai/ha) | Plant response rating, Chamomile [5, 17] | Plant response rating, Chamomile [5, 18] | Plant response rating, Chamomile [5, 19] | Plant response rating, Speedwell [7, 17] | Plant response rating, Speedwell [7, 18] | Plant response rating, Kochia (kochia (Kochia scoparia); [14]) | Plant response rating, Kochia (kochia (Kochia scoparia); [15]) | Plant response rating, Kochia (kochia (Kochia scoparia); [18]) | Plant response rating, Field Violet [8, 14] | Plant response rating, Field Violet [8, 15] | Plant response rating (scale of 0 to 100), Field Violet ([8]; Preemergence, 31 g ai/ha) | Plant response rating, Field Violet [8, 18] | Plant response rating, Field Violet [8, 19] | Plant response rating, Galium [11, 14] | Plant response rating, Galium [11, 15] | Plant response rating, Galium [11, 19]
35: Plant response rating (scale of 0 to 100), Buckwheat, Wild ([1]; Preemergence, 31 g ai/ha) | Plant response rating (scale of 0 to 100), Oilseed Rape ([12]; Preemergence, 62 g ai/ha) | Plant response rating, Oilseed Rape [12, 17]
45: Plant response rating (scale of 0 to 100), Bromegrass, Downy ([2]; Preemergence, 31 g ai/ha) | Plant response rating, Bromegrass, Downy [2, 19] | Blackgrass plant response rating [10, 13] | Plant response rating, Oilseed Rape [12, 19]
15: Plant response rating, Buckwheat, Wild [1, 17] | Plant response rating (scale of 0 to 100), Russian Thistle ([6]; Preemergence, 62 g ai/ha) | Plant response rating (scale of 0 to 100), Kochia (kochia (Kochia scoparia); Preemergence, 62 g ai/ha)
90: Pigweed plant response rating [4, 13] | Chamomile plant response rating [5, 13] | Kochia plant response rating (kochia (Kochia scoparia); [13]) | Plant response rating (scale of 0 to 100), Field Violet ([8]; Preemergence, 62 g ai/ha) | Oat, Wild plant response rating [9, 13] | Plant response rating, Oat, Wild [9, 19] | Galium plant response rating [11, 13]
85: Buckwheat, Wild plant response rating [1, 13] | Plant response rating, Bromegrass, Downy [2, 18] | Plant response rating, Russian Thistle [6, 15] | Plant response rating, Speedwell [7, 14] | Plant response rating, Speedwell [7, 15] | Plant response rating (scale of 0 to 100), Oat, Wild ([9]; Preemergence, 62 g ai/ha) | Plant response rating, Galium [11, 18]
30: Plant response rating (scale of 0 to 100), Oilseed Rape ([12]; Preemergence, 31 g ai/ha)
80: Plant response rating, Bromegrass, Downy [2, 17] | Plant response rating (scale of 0 to 100), Oat, Wild ([9]; Preemergence, 31 g ai/ha) | Plant response rating, Blackgrass [10, 15] | Plant response rating, Blackgrass [10, 18] | Plant response rating, Galium [11, 17] | Plant response rating, Oilseed Rape [12, 15]
0: Plant response rating, Buckwheat, Wild [1, 16] | Plant response rating, Buckwheat, Wild [1, 18] | Plant response rating (scale of 0 to 100), Kochia (kochia (Kochia scoparia); Preemergence, 31 g ai/ha)
75: Plant response rating (scale of 0 to 100), Lambsquarters ([3]; Preemergence, 31 g ai/ha) | Plant response rating, Russian Thistle [6, 14] | Plant response rating, Russian Thistle [6, 19] | Plant response rating (scale of 0 to 100), Speedwell ([7]; Preemergence, 31 g ai/ha) | Plant response rating (scale of 0 to 100), Speedwell ([7]; Preemergence, 62 g ai/ha) | Plant response rating, Speedwell [7, 19] | Plant response rating, Kochia (kochia (Kochia scoparia); [17]) | Plant response rating, Blackgrass [10, 14] | Plant response rating, Blackgrass [10, 16] | Plant response rating, Blackgrass [10, 17]
25: Oilseed Rape plant response rating [12, 13]
70: Speedwell plant response rating [7, 13] | Plant response rating (scale of 0 to 100), Blackgrass ([10]; Preemergence, 31 g ai/ha) | Plant response rating, Blackgrass [10, 19]
95: Lambsquarters plant response rating [3, 13] | Plant response rating, Lambsquarters [3, 14] | Plant response rating (scale of 0 to 100), Lambsquarters ([3]; Preemergence, 62 g ai/ha) | Plant response rating, Lambsquarters [3, 19] | Plant response rating, Kochia (kochia (Kochia scoparia); [19]) | Field Violet plant response rating [8, 13] | Plant response rating, Field Violet [8, 17] | Plant response rating, Oat, Wild [9, 14] | Plant response rating, Oat, Wild [9, 15] | Plant response rating, Oat, Wild [9, 17] | Plant response rating, Oat, Wild [9, 18]
55: Bromegrass, Downy plant response rating [2, 13]
